Assay results reported in patent US20200199530A1, “METHODS OF DIFFERENTIATING STEM CELL-DERIVED ECTODERMAL LINEAGE PRECURSORS” (MEMORIAL SLOAN-KETTERING CANCER CENTER, priority 2017, published 2020).
Entries after “also recorded” stand apart in the source; their conditions may differ.

Legend:
[1] = test system: human pluripotent stem cells (PAX6::H2B-GFP reporter); test: Neuroectoderm induction in E6 media, PAX6 positive cells; format: cell-based; details: day 12 post induction, no small molecules ~40%
Protocol: (§1) All differentiations starting from E8 were dissociated into single cells using EDTA and re-plated at high density in E8 with the ROCK inhibitor (Tocris). Cells were typically seeded at a density of 200,000 cells/cm^2 on Matrigel coated dishes. Switching from E8 to E6 triggered differentiations (i.e. d0). Neuroectoderm (NE) formation was generated by culturing the cells in E6 with 10 μM SB and 500 nM LDN until d12. Neural Crest (NC) was first treated with 10 μM SB, 600 nM CHIR and 1 ng/ml BMP4 from d0-d2. At d3, cells were maintained in 10 μM SB with 1.5 uM CHIR until d12. Lens placode was first treated with 10 μM SB and 5 ng/ml BMP4 from d0-d2. At d3, cells were maintained in 10 μM SB with 50 ng/ml FGF2 until d12. Trigeminal placode was first treated with 10 μM SB and 5 ng/ml BMP4 from d0-d2. At d2, 600 nm CHIR was added. At d3, cells were treated with 10 μM SB and 600 nM CHIR. From d4-d12, cells were treated with 10 μM SB. Finally, non-neural ectoderm (NNE) was treated with 10 μM SB, 10 μM SU5402 and 10 ng/ml BMP4 from d0-d1, and then treated with 10 μM SB and 5 ng/ml BMP4 from d2-d12.
Neuroectoderm differentiation. Day 0 (0-24 hrs): Add E6 media containing 500 nM LDN+10 μM SB to cells. To skew the differentiation more toward an anterior neuroectoderm, add E6 media containing 500 nM LDN+10 μM SB+5 μM XAV to cells. […]

[2] = test system: hPSC differentiated towards pituitary placode; test: Pituitary placode induction from hPSC; format: cell-based, human; details: 1 μM, with FGF8 and FGF10, day 15
Protocol: For pituitary differentiation cells were plated at 250 000 cells/cm^2 on VTN-N coated dishes (differentiation works best in 24 well plates) in E8+10 μM Y-27632. After 24 h (day0) medium was changed to E6 supplemented with 10 μM SB431542 and 5 ng/ml BMP4 (R&D Systems). Medium was changed every day. On day 3 BMP4 was removed from the medium and cells were cultured for 1 day in E6+10 μM SB431542. For the standard differentiation conditions, on day 4 E6 was supplemented with 10 μM SB431542, 200 ng/ml SHH (R&D Systems, C25II), 100 ng/ml FGF8b (R&D Systems) and 50 ng/ml FGF10 (Peprotech Inc.). For some experiments SHH was replaced by 1 μM purmorphamine (Stemgent) or 1 μM SAG (Stemcell Technologies). From now on medium volume was doubled and cells were feed every other day until day 15. […] Purified cells were then plated as droplets (50 000 cells/10 μl drop) in E6 supplemented with 10 μM Y-27632, 200 ng/ml SHH, 100 ng/ml FGF8b and 50 ng/ml FGF10 on polyornithine/laminin/fibronectin-coated plates. After 24 h medium was changed to E6 containing SHH, FGF8 and FGF10 until day 30. Medium was changed every other day. […] For quantitative RT PCR the present example used the SSoFast EvaGreen Mix (BioRad) in combination with QuantiTect primer assays (Qiagen) on a BioRad CFX96 Thermal Cycler. […] Results are calculated using the ΔΔCt method (Livak and Schmittgen, 2001).

[3] = test system: SIX1 placode cells (PAX3 expression); test: Trigeminal placode induction by CHIR99021 pulse; format: cell-based, human; details: additional pulse after the placode-inducing BMP pulse
Protocol: as §1
Trigeminal Placode differentiation. Day 0 (0-24 hrs): Add E6 media containing 5 ng/ml BMP4+10 μM SB to cells.
(§2) Day 1 (24-48 hrs): Change media with E6 media containing 5 ng/ml BMP4+10 μM SB to cells.
Day 2 (48-72 hrs): Change media with E6 media containing 5 ng/ml BMP4+10 μM SB+600 nM CHIR to cells. […]

[4] = test system: rodent GSK3β homologs; details: cited from earlier work
[5] = test system: hPSCs; test: Tolerability of small molecules during E6-based differentiation; format: cell-based, human; details: had to be re-titrated
[6] = test system: hPSC (SOX10::GFP reporter); test: Neural crest induction in E6 media, SOX10 positive cells; format: cell-based, human
Protocol: as §1
Neural Crest differentiation. Day 0 (0-24 hrs): Add E6 media containing 1 ng/ml BMP4+10 μM SB+600 nM CHIR to cells.
Day 1 (24-48 hrs): Change media with E6 media containing 1 ng/ml BMP4+10 μM SB+600 nM CHIR to cells. […]

[7] = test system: hPSCs (TFAP2A expression); test: BMP4 induction of TFAP2A and non-neural ectoderm in E6 media; format: cell-based, human
Protocol: as §1, with “Finally, non-neural ectoderm (NNE) was treated with 10 μM SB, 10 μM SU5402 and 10 ng/ml BMP4 from d0-d1, and then treated with 10 μM SB and 5 ng/ml BMP4 from d2-d12.” left out
Human embryonic (H9, H1, HUES8, HUES6 and MEL1) and induced pluripotent stem cells (BJ1, MRC5 and SeV6) were adapted in the E8 media for a minimum of 4 passages (˜2 weeks) and induced to differentiate into the four ectodermal lineages. Bulk differentiations were dissociated using Accutase for 30 min at 37° C. at day 10 of differentiation and seeded in 96 well imaging plates. Cells were fixed two days later using 4% paraformaldehyde and permeabilized using 0.5% Triton-X and maintained in 0.2% Tween all diluted with PBS. Cells were then stained using antibodies against various markers indicative of the ectodermal lineages. Plates were scanned and measurements recorded using an IN Cell Analyzer 6000 (GE) and quantified using the Columbus image analysis software (PerkinElmer). Experiments involving these cell lines were biologically replicated (n=4) and technically replicated (n=2 per biological replicate).

[8] = test system: hPSC (SIX1::H2B-GFP reporter); test: Cranial placode induction in E6 media, SIX1 positive cells; format: cell-based, human; details: three-day pulse with SB431542 in E6
Protocol: as §1
Cranial Placode differentiation. Day 0 (0-24 hrs): Add E6 media containing 5 ng/ml BMP4+10 μM SB to cells.
as §2
Day 2 (48-72 hrs): Change media with E6 media containing 5 ng/ml BMP4+10 μM SB to cells. […]

In the case of `NC(=O)c1ccc(-c2nc(-c3ccc4c(c3)OCO4)c(-c3ccccn3)[nH]2)cc1` [SB431542, 4-[4-(1,3-benzodioxol-5-yl)-5-(2-pyridinyl)-1H-imidazol-2-yl]-benzamide], the “percentage of cells expressing PAX6” value [1] is reported as about 90%.

In the case of `CNC1CCC(N(Cc2cccc(-c3ccncc3)c2)C(=O)c2sc3ccccc3c2Cl)CC1` (stereo not drawn) [SAG], the “replacement of recombinant SHH in pituitary induction” value [2] is reported as “can be replaced”.

In the case of `Cc1c[nH]c(-c2cnc(NCCNc3ccc(C#N)cn3)nc2-c2ccc(Cl)cc2Cl)n1` [CHIR99021, 6-(2-(4-(2,4-dichlorophenyl)-5-(4-methyl-1H-imidazol-2-yl)pyrimidin-2-ylamino)ethylamino)nicotinonitrile], the “PAX3 expression in placode cells” value [3] is given as “capable of triggering PAX3+ and PAX6− expression”, the “IC50 values against rodent GSK3β homologs” value [4] is given as “nanomolar” and the “cell killing at the original (KSR protocol) concentration” value [5] is given as “effectively killed the cells”.

For `c1ccc2c(Oc3nc(Nc4ccc(N5CCOCC5)cc4)c4ncn(C5CCCCC5)c4n3)cccc2c1` [purmorphamine], the “replacement of recombinant SHH in pituitary induction” value [2] was “can be replaced”.

B1: BMP4: activator of BMP signaling (protein, UniProt P12644 293-408, looked up)
Bone morphogenetic protein 4: SPKHHSQRARKKNKNCRRHSLYVDFSDVGWNDWIVAPPGYQAFYCHGDCPFPLADHLNSTNHAIVQTLVNSVNSSIPKACCVPTELSAISMLYLDEYDKVVLKNYQEMVVEGCGCR
In the case of B1, the “SOX10 positive NC population” value ([6]; short pulse 1 ng/ml in combination with WNT activation) is reported as “nearly homogenous SOX10 positive NC population; also recorded: nearly homogeneous SOX10+ NC population”, the “BMP4 concentration giving strong NC induction (dose-response studies)” value ([6]; three-day pulse with SB431542 in E6) is reported as “around 1 ng/ml” and the “NNE marker phenotype at high BMP4 concentration” value ([7]; 20 ng/ml) is reported as “cells become TFAP2A+ and lack expression of SOX10 and SIX1; also recorded: derivation of TFAP2A+, PAX6−, SIX1−, and SOX10− NNE is achieved”. For the same molecule, the “percentages of TFAP2A+ cells” value ([7]; with addition of BMP4, range across ESC/iPSC lines, 0%-5% without BMP4) was 56%-95%, the TFAP2A expression ([7]; within 3 days of treatment, dose-dependent) was “rapidly upregulated” and the “BMP4 concentration optimal for CP induction (dose-response studies)” value [8] was “around 5 ng/ml”.
